Test results reported in patent publication US9914723B2, “Small molecule inhibitors of Mcl-1 and uses thereof” (THE REGENTS OF THE UNIVERSITY OF MICHIGAN, priority 2012, dated 2018).

Tests used:
[1] = biological target: T1, Mcl-1 (Homo sapiens, UniProt Q07820); test: Binding affinity against Bcl-2 family anti-apoptotic proteins: Mcl-1
[2] = biological target: T2, A1 (Homo sapiens, UniProt Q16548); test: Binding affinity against Bcl-2 family anti-apoptotic proteins: A1
T2 sequence (Q16548 1-175): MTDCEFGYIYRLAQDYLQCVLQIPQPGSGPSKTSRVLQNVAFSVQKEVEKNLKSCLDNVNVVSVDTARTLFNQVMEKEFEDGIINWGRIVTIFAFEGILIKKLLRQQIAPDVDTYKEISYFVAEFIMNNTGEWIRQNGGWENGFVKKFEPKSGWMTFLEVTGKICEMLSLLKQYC

[3] = biological target: T3, Bcl-w (Homo sapiens, UniProt Q92843); test: Binding affinity against Bcl-2 family anti-apoptotic proteins: Bcl-w
T3 sequence (Q92843 1-193): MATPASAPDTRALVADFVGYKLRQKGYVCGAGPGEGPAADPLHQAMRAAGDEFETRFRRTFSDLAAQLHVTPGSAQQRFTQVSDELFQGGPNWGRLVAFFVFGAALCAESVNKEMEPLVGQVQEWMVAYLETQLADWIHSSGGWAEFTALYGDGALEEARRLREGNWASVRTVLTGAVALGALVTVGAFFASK

[4] = biological target: Bcl-2 (Homo sapiens, UniProt P10415); test: Binding affinity against Bcl-2 family anti-apoptotic proteins: Bcl-2
[5] = biological target: Bcl-xL (Homo sapiens, UniProt Q07817); test: Binding affinity against Bcl-2 family anti-apoptotic proteins: Bcl-xL
[6] = test system: HL-60; test: Cellular activity against leukemia human tumor cell lines: HL-60; format: cell-based; conditions: AML-derived cell line
Protocol: (§1) Acute myeloid leukemia (AML) frequently relapses after initial treatment. Drug resistance in AML has been attributed to high levels of the anti-apoptotic Bcl-2 family proteins. Indeed, Mcl-1 is essential for development and survival of acute myelogenous leukemia cells. Therefore the cellular activity of Mcl-1 inhibitors against AML human cancer cell lines was tested. Blockade of Mcl-1 by these inhibitors (see Table 3) killed AML-derived cell lines, HL-60 and MV4-11, but had less impact on the human CML-derived (K562) cell line.

[7] = test system: MV4-11; test: Cellular activity against leukemia human tumor cell lines: MV4-11; format: cell-based; conditions: AML-derived cell line
Protocol: as §1

[8] = test system: K562; test: Cellular activity against leukemia human tumor cell lines: K562; format: cell-based; conditions: human CML-derived cell line
Protocol: as §1

[9] = biological target: T1, Mcl-1; conditions: cited from earlier work
[10] = biological target: T1, Mcl-1; test: fluorescence polarizing binding assay, binding to Mcl-1; conditions: for binding / inhibition of Mcl-1 compared with UMI-1033, in words: 4-methyl-1-piperazinyl group of UMI-1033 replaced; for IC50: fluorescence polarizing binding assay; for fold decrease of binding affinity to Mcl-1: in comparison with UMI-1033
Protocol: FIGS. 1, 2, 3, and 4 show various compounds for Formula I having various R1, R2, R3, R4, R5, R6, R7 and R8 groups, and related structure activity relationship (SAR) for each respective compound (IC50 values were determined with fluorescence polarizing binding assay).

[11] = test system: HL-60 cell line; test: Induction of apoptosis in HL-60, flow cytometry with Annexin V and propidium iodide double staining; caspase-3 activation; format: cell-based, human
From the text: To gain insights into the underlying mechanism of action for the cell growth inhibition of this class Mcl-1 inhibitors, the HL-60 cell line was selected and investigated if apoptosis contributes to the antiproliferative effect. Induction of apoptosis was monitored by flow cytometry using Annexin V and propidium iodide double staining.

[12] = biological target: T4, cellular, endogenous Mcl-1 protein (Homo sapiens, UniProt Q07820); test: Pull-down assay with biotin-labeled Noxa BH3 peptide (BL-Noxa) in 2LMP cell lysate; format: binding
T4 construct: endogenous in cells; host or cells: 2LMP cancer cell line (lysate)

[13] = test system: MEF WT cells; test: Cell death in wild-type MEF cells; format: cell-based, mouse
Protocol: (§2) It is known that apoptotic effectors Bak and Bax can be suppressed by multidomain anti-apoptotic proteins such as Mcl-1. To interrogate the mechanism of action, the activity of several novel Mcl-1 inhibitors were evaluated in mouse embryonic fibroblast (MEF) cells that included wild-type (WT) as well as cells deficient in Bax/Bak (DKO).

[14] = test system: MEF DKO cells; test: Cell death in Bax/Bak deficient (DKO) MEF cells; format: cell-based, mouse
Protocol: as §2

T1 sequence (Q07820 whole entry, species assumed): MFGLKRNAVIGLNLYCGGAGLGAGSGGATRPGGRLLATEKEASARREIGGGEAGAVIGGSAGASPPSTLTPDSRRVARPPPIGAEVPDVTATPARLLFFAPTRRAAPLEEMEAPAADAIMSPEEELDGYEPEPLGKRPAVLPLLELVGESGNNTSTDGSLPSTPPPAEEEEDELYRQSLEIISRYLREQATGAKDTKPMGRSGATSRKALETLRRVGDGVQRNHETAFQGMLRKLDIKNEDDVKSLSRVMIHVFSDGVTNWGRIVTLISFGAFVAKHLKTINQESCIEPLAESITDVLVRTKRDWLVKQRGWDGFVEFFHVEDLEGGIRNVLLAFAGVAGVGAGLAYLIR
Chain of Bcl-xL (Q07817 whole entry, species assumed): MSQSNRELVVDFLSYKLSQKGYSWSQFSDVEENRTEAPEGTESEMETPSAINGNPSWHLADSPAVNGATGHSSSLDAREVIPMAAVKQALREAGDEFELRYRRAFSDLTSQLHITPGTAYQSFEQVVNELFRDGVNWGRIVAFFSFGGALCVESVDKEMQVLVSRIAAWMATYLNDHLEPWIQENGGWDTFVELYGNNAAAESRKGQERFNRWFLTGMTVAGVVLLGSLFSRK
Chain of Bcl-2 (P10415 whole entry, species assumed): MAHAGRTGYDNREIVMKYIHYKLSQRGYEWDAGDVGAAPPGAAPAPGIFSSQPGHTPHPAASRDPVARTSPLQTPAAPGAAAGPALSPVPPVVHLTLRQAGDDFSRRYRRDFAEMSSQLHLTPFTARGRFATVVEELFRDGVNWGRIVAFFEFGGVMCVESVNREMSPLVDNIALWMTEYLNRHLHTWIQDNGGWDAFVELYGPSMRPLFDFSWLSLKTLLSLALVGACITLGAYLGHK
T4 sequence (Q07820 whole entry): as the sequence (Q07820 whole entry, species assumed) above

| Ki [1] [µM] | Ki [2] [µM] | Ki [3] [µM] | Ki [4] [µM] | Ki [5] [µM] | EC50 [6] [µM] | EC50 [7] [µM] | EC50 [8] [µM] | SMILES | further results |
| --- | --- | --- | --- | --- | --- | --- | --- | --- | --- |
| 0.02 | > 25 | > 30 | 16.7 | > 30 | 11.3 | 7.05 | > 30 | CCOC(=O)c1c(C)oc2c1c(C(c1ccncc1)N1CCN(C)CC1)c(O)c1ccccc12 (stereo not drawn) [UMI-1033] | – |
| 0.015 | > 25 | > 30 | > 30 | > 30 | 3.98 | 7.15 | > 30 | CCOC(=O)c1c(C)oc2c1c(C(c1ccncc1)N1CCN(C(C)C)CC1)c(O)c1ccccc12 (stereo not drawn) [UMI-1009] | binding / inhibition of Mcl-1 compared with UMI-1033, in words [10]: kept same; caspase-3 activation ([11]; HL-60): activation of caspase-3; induction of apoptosis ([11]; HL-60, 5 μM): 37%; induction of apoptosis ([11]; HL-60, 10 μM): 57% |
| 0.03 | > 25 | > 30 | > 30 | > 30 | – | – | – | CCOC(=O)c1c(C)oc2c1c(C(c1ccnc(Cl)c1)N1CCOCC1)c(O)c1ccccc12 (stereo not drawn) [UMI-1026] | – |
| – | – | – | – | – | 14.7 | 10.1 | > 30 | CCOC(=O)CN1CCN(C(c2ccncc2)c2c(O)c3ccccc3c3oc(C)c(C(=O)OCC)c23)CC1 (stereo not drawn) [UMI-1042] | cell death in MEF WT [13]: induced cell death; cell death in MEF DKO [14]: not in MEF DKO cells |
| 0.015 | > 25 | 28 | 13.8 | > 30 | – | – | – | COC(=O)c1c(C)oc2c1c(C(c1ccncc1)N1CCN(C)CC1)c(O)c1ccccc12 (stereo not drawn) [UMI-1035] | EC50 ([6]; Homo sapiens, HL-60): 12.3 µM; EC50 ([7]; Homo sapiens, MV4-11): 6.16 µM; EC50 ([8]; K562): 24.6 µM; cell death in MEF WT [13]: induced cell death; cell death in MEF DKO [14]: not in MEF DKO cells |

Second part, the molecule before the results:

| SMILES | Ki [1] [µM] | Ki [2] [µM] | Ki [3] [µM] | Ki [4] [µM] | Ki [5] [µM] | EC50 [6] [µM] | EC50 [7] [µM] | EC50 [8] [µM] | further results |
| --- | --- | --- | --- | --- | --- | --- | --- | --- | --- |
| CN(C)CC[C@H](CSc1ccccc1)Nc1ccc(S(=O)(=O)NC(=O)c2ccc(N3CCN(Cc4ccccc4-c4ccc(Cl)cc4)CC3)cc2)cc1[N+](=O)[O-] [ABT-737] | – | – | – | – | – | – | – | – | binding to Mcl-1 [9]: fails to bind |
| CCOC(=O)c1c(C)oc2c1c(C(c1ccncc1)N1CCc3ccccc3C1)c(O)c1ccccc12 (stereo not drawn) [UMI-1011] | – | – | – | – | – | – | – | – | IC50 [10]: 0.19 µM; fold decrease of binding affinity to Mcl-1 [10]: 3 fold |
| CCOC(=O)c1c(C)oc2c1c(C(c1ccncc1)N1CCOCC1)c(O)c1ccccc12 (stereo not drawn) [UMI-1007] | 0.02 | > 25 | > 30 | > 30 | > 30 | 16 | 12.8 | – | disruption of the interactions between BL-Noxa and cellular Mcl-1 [12]: effectively disrupted the interactions between BL-Noxa and cellular Mcl-1 |
| COC(=O)c1c(C)oc2c1c(C(c1ccncc1)N1CCOCC1)c(O)c1ccccc12 (stereo not drawn) [UMI-1036] | – | – | – | – | – | 16.2 | 8.22 | > 30 | cell death in MEF WT [13]: induced cell death; cell death in MEF DKO [14]: not in MEF DKO cells |
| CCOC(=O)c1c(C)oc2c1c(C(c1ccncc1)N1CCN(CC)CC1)c(O)c1ccccc12 (stereo not drawn) [UMI-1008] | – | – | – | – | – | – | – | – | binding / inhibition of Mcl-1 compared with UMI-1033, in words [10]: kept same |
| CCOC(=O)c1c(C)oc2c1c(C(c1ccc(F)cc1)N1CCN(C)CC1)c(O)c1ccccc12 (stereo not drawn) [UMI-118] | – | – | – | – | – | – | – | – | IC50 [10]: 0.19 µM; fold decrease of binding affinity to Mcl-1 [10]: 3 fold |
| CCOC(=O)c1c(C)oc2c1c(C(c1cccc(F)c1)N1CCN(C)CC1)c(O)c1ccccc12 (stereo not drawn) [UMI-1003] | – | – | – | – | – | – | – | – | IC50 [10]: 0.2 µM |
